Source: US20260265305A1, “POLYPEPTIDE DERIVATIVE FOR ORAL DELIVERY” (Hangzhou Sciwind Biosciences Co., Ltd., priority 2023, published 2026)
pEC50: −log10 of the molar value. Read-outs that look alike come from different tables or passages of the source. Numbered stars: 1 amine (or outer) side, 2 acyl side, 3 side chain; on linkers, the order of the positions; unused ones are H or OH. Square brackets hold non-standard residues; d marks the D form. Peptide text beside a SMILES is read from it. * marks the point of attachment. C20 diacid = O=C(O)CCCCCCCCCCCCCCCCCCC(=O)*; γGlu = O=C(O)[C@H](CCC(=O)[*:2])N[*:1]; βAsp = O=C(O)[C@H](CC(=O)[*:2])N[*:1]; Trx = NC[C@H]1CC[C@H](C(=O)O)CC1; AEEA = NCCOCCOCC(=O)O

Tests used:
[1] = target: T1, amylin receptor (hAMY3R) (Homo sapiens, UniProt O60896+P30988); assay: Amylin receptor agonism testing, CRE-luciferase assay in stably transfected CHO-K1/Ga15/AMY3 cells; type: cell-based; details: for Fold change in activity against hAMY3R: relative to D1 as benchmark
T1 construct: host or cells: CHO-K1/Ga15/AMY3 cells, further stably transfected with a CRE-luciferase plasmid
T1 sequence (P30988 25-474): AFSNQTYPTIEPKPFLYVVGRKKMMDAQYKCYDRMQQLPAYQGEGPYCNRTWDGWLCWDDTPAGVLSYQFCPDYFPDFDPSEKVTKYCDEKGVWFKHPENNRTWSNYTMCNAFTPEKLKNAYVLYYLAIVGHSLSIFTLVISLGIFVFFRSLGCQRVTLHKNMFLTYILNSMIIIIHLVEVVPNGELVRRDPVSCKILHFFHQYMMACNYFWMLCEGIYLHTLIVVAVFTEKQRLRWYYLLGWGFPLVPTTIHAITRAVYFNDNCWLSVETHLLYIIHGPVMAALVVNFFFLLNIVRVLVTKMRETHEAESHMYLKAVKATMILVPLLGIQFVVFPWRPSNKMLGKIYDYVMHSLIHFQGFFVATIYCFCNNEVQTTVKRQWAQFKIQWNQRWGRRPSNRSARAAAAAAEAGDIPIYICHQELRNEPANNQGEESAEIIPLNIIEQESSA
T1 sequence (O60896 24-148): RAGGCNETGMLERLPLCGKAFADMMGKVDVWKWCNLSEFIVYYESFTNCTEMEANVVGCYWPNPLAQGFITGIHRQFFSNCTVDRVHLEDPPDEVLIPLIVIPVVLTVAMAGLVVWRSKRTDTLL

[2] = Animal study: weight change and accumulated food intake in SD rats after subcutaneous dosing; type: in vivo, SD (Sprague Dawley) rats; details: 10 nmol/kg subcutaneous; for effect on body weight of SD rats: FIGS. 1 and 3; for effect on accumulated food intake of SD rats: FIGS. 2 and 4
Source text: SD (Sprague Dawley) rats weighing 200-250 g were used for this study. The rats were received at least 10-14 days before the study began such that they could accommodate to the experimental environment. After arrival, they were exposed to a reversed light/dark cycle (i.e., lights switched off in daytime and on in nighttime) for two weeks and were individually housed for the first week so as to ensure high data accuracy and test sensitivity. Throughout the acclimation and experiment period, the rats had free access to food and water. 5-8 rats were assigned to each testing group for the derivatives and were subcutaneously administered the derivatives at a dose of 10 nmol/kg or a vehicle (20 mM phosphate buffer, PB, pH 7.0), and the dosing timepoint was recorded for each group. After dosing, the rats were put back into cages where they were housed and could have access to food and water. Food consumption and weight change of the rats were recorded online or manually every 24 hours. Percent of weight change=(BWTn−BWT0)/BWT0*100%, wherein BW represented the value of body weight, and T0 and Tn represented the time point of dosing and n hours post dose respectively. Dots in the figures were represented utilizing mean±standard error of the mean (SEM).

[3] = target: T2, calcitonin receptor (hCTR) (Homo sapiens, UniProt P30988); assay: Calcitonin receptor agonism, CRE-luciferase assay in stably transfected CHO-K1/CALCR/Ga15 cells; type: cell-based; details: for pEC50: incubation of 24 hours, Table 4, read-out: EC50, activity against the calcitonin receptor in cells; for Fold change in activity against hCTR: relative to D1 as benchmark
T2 construct: host or cells: CHO-K1/CALCR/Ga15 cells, further stably transfected with a CRE-luciferase plasmid
T2 sequence (P30988 25-474): T1 sequence (P30988 25-474)
Experimental: Using the standard protocol, CHO-K1/CALCR/Ga15 cells (purchased from GenScript, with the calcitonin receptor constructed already) were transfected with a plasmid containing a luciferase expression cassette driven by multiple copies of cAMP response elements (CREs). The cells were cultured in an F12 medium containing 200 ug/mL Zeocin, 2 ug/mL puromycin, and 100 ug/mL hygromycin to afford a stably transfected calcitonin receptor/CRE-luc cell line.
To each well of a white 96-well plate was added 50 μL of the tested sample solution at a respective concentration.
The stably transfected calcitonin receptor/CRE-luc CHO cells were resuspended in the growth medium at a certain density, and 50 μL of the cell suspension was added at a density of about 20,000 cells per well to the white 96-well plate containing the tested sample solution. After incubation of 24 hours at 37° C. and 5% CO2, 100 μL of a Luciferase substrate was added to each well, incubated for 3 minutes, and finally was tested for luminescence on SpectraMax L (Molecular Devices) with the software SoftMax Pro 7.0.3 GxP. A standard curve was plotted using the fluorescent intensities for calculation of EC50.

[4] = Heat accelerated stability assay of polypeptide solutions (40° C., pH about 7.4), reversed phase chromatography; type: physicochemical; details: 40° C.; for Concentration change on 7 d / Concentration change on 26 d: pH about 7.4, 1 mg/mL; for Concentration change on 7 d / Purity change on 7 d: Day 7; for Concentration change on 26 d / Purity change on 26 d: Day 26; for Purity change on 7 d / Purity change on 26 d: reversed phase chromatography 214 nm; for Purity change on 7 d: purity on 7 d − purity on 0 d; for Purity change on 26 d: purity on 26 d − purity on 0 d
In short: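 Polypeptide derivative lyophilisate (1 mg/mL) with sodium dihydrogen phosphate (1.42 mg/mL) in water, pH about 7.4, sterile-filtered, vialed and held at 40° C; sampled on days 7 and 26. After centrifugation, concentration and purity (target/total peak area) by C18 RP-HPLC, TFA/ACN gradient, 280 and 214 nm.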

[5] = incubation of 24 hours, Table 3, read-out: EC50, activity against the amylin receptor in cells

For `CC(C)C[C@H](NC(=O)[C@H](CCCNC(=N)N)NC(=O)CNC(=O)[C@H](CC(C)C)NC(=O)[C@@H](NC(=O)[C@H](C)NC(=O)[C@@H](NC(=O)[C@H](CO)NC(=O)[C@H](CC(C)C)NC(=O)[C@H](CCC(N)=O)NC(=O)[C@H](CO)NC(=O)[C@H](C)NC(=O)COCCOCCNC(=O)COCCOCCNC(=O)CC[C@H](NC(=O)CCCCCCCCCCCCCCCCCCC(=O)O)C(=O)O)[C@@H](C)O)C(C)C)C(=O)N[C@@H](CO)C(=O)N[C@@H](CC(=O)O)C(=O)N[C@@H](CCC(=O)O)C(=O)N[C@@H](CC(C)C)C(=O)N[C@@H](Cc1c[nH]cn1)C(=O)N[C@@H](CCCNC(=N)N)C(=O)N[C@@H](CC(C)C)C(=O)N[C@@H](CCC(N)=O)C(=O)N[C@@H](CC(=O)O)C(=O)N[C@@H](Cc1ccc(O)cc1)C(=O)N1CCC[C@H]1C(=O)N[C@@H](CCCNC(=N)N)C(=O)N[C@H](C(=O)N[C@@H](CC(=O)O)C(=O)N[C@H](C(=O)NCC(=O)N[C@@H](CO)C(=O)NCC(=O)N[C@@H](CO)C(=O)N1CCC[C@H]1C(N)=O)C(C)C)[C@@H](C)O` [M18] ({C20 diacid-γGlu-AEEA-AEEA}-ASQLSTAVLGRLSDELHRLQDYPRTDVGSGSP-NH2), the pEC50 ([1]; Table 5 integrated analysis, read-out: hAMY3R EC50) was 10.80, the “Fold change in activity against hAMY3R” value [1] was 2.25 and the “effect on body weight of SD rats” value [2] was “apparently further reduced”. The “effect on accumulated food intake of SD rats” value [2] was “apparently further reduced”, the pEC50 [3] was 10.16 and the “Fold change in activity against hCTR” value [3] was 1.246. For the same molecule, the “Concentration change on 7 d” value [4] was “No change (concentration change of less than 1% (denoted as “no change”))”, the “Concentration change on 26 d” value [4] was −1.148% and the “Purity change on 7 d” value [4] was “No change”. For the same molecule, the “Purity change on 26 d” value [4] was “nearly no noticeable change in purity”.
In the case of `CC(C)C[C@H](NC(=O)[C@H](CCCNC(=N)N)NC(=O)CNC(=O)[C@H](CC(C)C)NC(=O)[C@@H](NC(=O)[C@H](C)NC(=O)[C@@H](NC(=O)[C@H](CO)NC(=O)[C@H](CC(C)C)NC(=O)[C@H](CCC(N)=O)NC(=O)[C@H](CO)NC(=O)[C@H](C)NC(=O)COCCOCCNC(=O)COCCOCCNC(=O)[C@H](CCC(=O)O)NC(=O)CCCCCCCCCCCCCCCCCCC(=O)O)[C@@H](C)O)C(C)C)C(=O)N[C@@H](CO)C(=O)N[C@@H](CC(=O)O)C(=O)N[C@@H](CCC(=O)O)C(=O)N[C@@H](CC(C)C)C(=O)N[C@@H](Cc1c[nH]cn1)C(=O)N[C@@H](CCCNC(=N)N)C(=O)N[C@@H](CC(C)C)C(=O)N[C@@H](CCC(N)=O)C(=O)N[C@@H](CC(=O)O)C(=O)N[C@@H](Cc1ccc(O)cc1)C(=O)N1CCC[C@H]1C(=O)N[C@@H](CCCNC(=N)N)C(=O)N[C@H](C(=O)N[C@@H](CC(=O)O)C(=O)N[C@H](C(=O)NCC(=O)N[C@@H](CO)C(=O)NCC(=O)N[C@@H](CO)C(=O)N1CCC[C@H]1C(N)=O)C(C)C)[C@@H](C)O` [M23] ({C20 diacid}-E[AEEA][AEEA]ASQLSTAVLGRLSDELHRLQDYPRTDVGSGSP-NH2), the pEC50 [1, 5] was 10.77, the “effect on body weight of SD rats” value [2] was “apparently further reduced” and the “effect on accumulated food intake of SD rats” value [2] was “apparently further reduced”. For the same molecule, the “Concentration change on 26 d” value [4] was −7.782%, the “Purity change on 7 d” value [4] was “No change” and the “Purity change on 26 d” value [4] was “nearly no noticeable change in purity”.
For `CC(C)C[C@H](NC(=O)[C@H](CCCNC(=N)N)NC(=O)CNC(=O)[C@H](CC(C)C)NC(=O)[C@@H](NC(=O)[C@H](C)NC(=O)[C@@H](NC(=O)[C@H](CO)NC(=O)[C@H](CC(C)C)NC(=O)[C@H](CCC(N)=O)NC(=O)[C@H](CO)NC(=O)[C@H](C)NC(=O)COCCOCCNC(=O)COCCOCCNC(=O)C[C@H](NC(=O)CCCCCCCCCCCCCCCCCCC(=O)O)C(=O)O)[C@@H](C)O)C(C)C)C(=O)N[C@@H](CO)C(=O)N[C@@H](CC(=O)O)C(=O)N[C@@H](CCC(=O)O)C(=O)N[C@@H](CC(C)C)C(=O)N[C@@H](Cc1c[nH]cn1)C(=O)N[C@@H](CCCNC(=N)N)C(=O)N[C@@H](CC(C)C)C(=O)N[C@@H](CCC(N)=O)C(=O)N[C@@H](CC(=O)O)C(=O)N[C@@H](Cc1ccc(O)cc1)C(=O)N1CCC[C@H]1C(=O)N[C@@H](CCCNC(=N)N)C(=O)N[C@H](C(=O)N[C@@H](CC(=O)O)C(=O)N[C@H](C(=O)NCC(=O)N[C@@H](CO)C(=O)NCC(=O)N[C@@H](CO)C(=O)N1CCC[C@H]1C(N)=O)C(C)C)[C@@H](C)O` [M25] ({C20 diacid-βAsp-AEEA-AEEA}-ASQLSTAVLGRLSDELHRLQDYPRTDVGSGSP-NH2), the pEC50 [1, 5] was 10.77, the “Fold change in activity against hAMY3R” value [1] was 2.118 and the “effect on body weight of SD rats” value [2] was “apparently further reduced”. The “effect on accumulated food intake of SD rats” value [2] was “apparently further reduced”, the pEC50 [3] was 9.86 and the “Fold change in activity against hCTR” value [3] was 0.623. The “Concentration change on 7 d” value [4] was −1.222%, the “Concentration change on 26 d” value [4] was −2.645% and the “Purity change on 7 d” value [4] was −2.45%. For the same molecule, the “Purity change on 26 d” value [4] was −5.24%.
For `CC(C)C[C@H](NC(=O)[C@H](CCCNC(=N)N)NC(=O)CNC(=O)[C@H](CC(C)C)NC(=O)[C@@H](NC(=O)[C@H](C)NC(=O)[C@@H](NC(=O)[C@H](CO)NC(=O)[C@H](CC(C)C)NC(=O)[C@H](CCC(N)=O)NC(=O)[C@H](CO)NC(=O)[C@H](C)NC(=O)COCCOCCNC(=O)COCCOCCNC(=O)[C@H]1CC[C@H](CNC(=O)CCCCCCCCCCCCCCCCCCC(=O)O)CC1)[C@@H](C)O)C(C)C)C(=O)N[C@@H](CO)C(=O)N[C@@H](CC(=O)O)C(=O)N[C@@H](CCC(=O)O)C(=O)N[C@@H](CC(C)C)C(=O)N[C@@H](Cc1c[nH]cn1)C(=O)N[C@@H](CCCNC(=N)N)C(=O)N[C@@H](CC(C)C)C(=O)N[C@@H](CCC(N)=O)C(=O)N[C@@H](CC(=O)O)C(=O)N[C@@H](Cc1ccc(O)cc1)C(=O)N1CCC[C@H]1C(=O)N[C@@H](CCCNC(=N)N)C(=O)N[C@H](C(=O)N[C@@H](CC(=O)O)C(=O)N[C@H](C(=O)NCC(=O)N[C@@H](CO)C(=O)NCC(=O)N[C@@H](CO)C(=O)N1CCC[C@H]1C(N)=O)C(C)C)[C@@H](C)O` [M27] ({C20 diacid-Trx-AEEA-AEEA}-ASQLSTAVLGRLSDELHRLQDYPRTDVGSGSP-NH2), the “Fold change in activity against hAMY3R” value [1] was 9.000, the “effect on body weight of SD rats” value [2] was “apparently further reduced” and the “effect on accumulated food intake of SD rats” value [2] was “apparently further reduced”. For the same molecule, the “Fold change in activity against hCTR” value [3] was 0.161, the “Concentration change on 26 d” value [4] was −2.286% and the “Purity change on 7 d” value [4] was “No change”. The “Purity change on 26 d” value [4] was −1.27%.
